Assay results reported in patent US20220008499A1, “COMPOUNDS, COMPOSITIONS AND METHODS FOR TREATING SEPSIS” (FERRING B.V., priority 2018, published 2022).
Bridge positions count the residues as written; N and C are the ends. Square brackets hold non-standard residues; d marks the D form. Peptide text beside a SMILES is read from it. Orn(iPr) = CC(C)NCCC[C@H](N)C(=O)O; Aad = N[C@@H](CCCC(=O)O)C(=O)O

Assays:
[1] = tested on: patients with septic shock; details: cited from earlier work
[2] = tested on: patients with vasopressor-dependent sepsis and septic shock; test: randomized, placebo-controlled, adaptive clinical study of selepressin plus standard care; format: in vivo, human; set-up: Estimated 30-day mortality (up to day 30) / Estimated 30-day mortality, treatment difference vs placebo: concentration or dose not given beside the values; details: for improvement in estimated VFDs compared with placebo (more): up to day 30; for Est P&VFDs: all patients / Estimated Pressor and Ventilator Free days (P&VFDs): all patients: all doses pooled; for Est % mortality, treatment difference vs placebo / Est P&VFDs: all patients, treatment difference vs placebo / Est P&VFDs: survivors, treatment difference vs placebo / Estimated P&VFDs: all patients, treatment difference vs placebo / Estimated 30-day mortality, treatment difference vs placebo / Estimated P&VFDs: survivors only, treatment difference vs placebo: selepressin minus placebo; for Estimated Pressor and Ventilator Free days (P&VFDs): all patients: up to Day 30
Source text: The study described in the following examples was a randomized, placebo-controlled, seamless two-part, adaptive clinical study. […] The term “vasopressor-dependent sepsis” includes all patients with sepsis requiring vasopressor therapy. Septic shock includes patients with sepsis who require vasopressor therapy and who have a serum lactate concentration of ≥2 mmol/L.
The inclusion and exclusion criteria for the trial are set out below.
Inclusion Criteria • 18 years of age or older • Proven or suspected infection Septic shock defined as hypotension (systolic blood pressure less than 90 mm Hg or • Mean arterial pressure less than 65 mm Hg requiring vasopressor treatment (i.e., any dose of norepinephrine/noradrenaline base greater than […]) despite adequate fluid resuscitation (at least 1 litre for hypotension) • Informed consent obtained in accordance with local regulations
Exclusion Criteria • Unable to initiate treatment with selepressin or placebo within 12 h of onset of vasopressor treatment for septic shock • Primary cause of hypotension not due to sepsis • Previous severe sepsis with intensive care admission within this hospital stay • Known/suspected acute mesenteric ischemia • Suspicion of concomitant acute coronary syndrome based on clinical symptoms and/or electrocardiogram findings during this episode of septic shock • Chronic mechanical ventilation for any reason or severe chronic obstructive pulmonary disease (COPD) requiring either continuous daily oxygen use during the preceding 30 days or mechanical ventilation (for acute exacerbation of COPD) during the preceding 30 days • Received bone marrow transplant during the preceding 6 months or chemotherapy during the preceding 30 days for lymphoma or leukemia • Known to be pregnant Decision to limit full care taken before obtaining informed consent • Use of vasopressin in the past 12 hours before start of selepressin or placebo or use of terlipressin within 7 days of start of selepressin or placebo • Prior enrollment in the study • Prior use of an investigational medicinal product within the last month or planned or concurrent participation in a clinical trial for any investigational drug or investigational device
Additional Criteria that Must be Met at the Time of the Start of the Infusion of Selepressin or Placebo • Received a minimum of 30 ml/kg fluid in total from the onset of hypotension (not required if there is evidence of adequate fluid repletion or overload) • Received a continuous infusion of norepinephrine/noradrenaline base greater than […] for at least 1 h and is still receiving at least […] norepinephrine/noradrenaline base • Less than 12 h since onset of vasopressor treatment for septic shock
The targeted study population is a typical sample of patients presenting with vasopressor-dependent sepsis, defined by failing to respond to intravenous fluid replacement and requiring vasopressors for at least 1 hour, in whom treatment with selepressin or placebo could be initiated within 12 hours of the initiation of vasopressors.
The study drug was the continuous intravenous infusion of either the experimental agent or a matching placebo. In all instances, subjects received study infusion and standard care. The possible treatment arms were: Placebo; selepressin starting infusion rate 1.7 ng/kg/min to maximum 2.5 ng/kg/min; selepressin starting 2.5 ng/kg/min to maximum 3.75 ng/kg/min; selepressin starting 3.5 ng/kg/min to maximum 5.25 ng/kg/min; and selepressin starting 5.0 ng/kg/min to 7.5 ng/kg/min. […] This latter approach sought to wean all other vasoactive agents as soon as possible, and in a specified order, beginning with any open-label vasopressor other than norepinephrine, followed by norepinephrine, and finally the blinded study infusion. All patients received the study infusion until recovery from the need of vasopressor treatment or for 30 days, whichever came first. […]

[3] = biological target: human vasopressin V1a receptor (Homo sapiens, UniProt P37288); details: relative to the V1b, V2, and oxytocin receptors; cited from earlier work
[4] = tested on: other receptors, ion channels, or transporters; details: cited from earlier work
[5] = baseline serum lactate <2 mmol/L, n = 184
[6] = baseline serum lactate <2 mmol/L
[7] = baseline serum lactate ≥2 mmol/L, n = 340
[8] = baseline serum lactate ≥2 mmol/L

Sequence of human vasopressin V1a receptor (P37288 whole entry): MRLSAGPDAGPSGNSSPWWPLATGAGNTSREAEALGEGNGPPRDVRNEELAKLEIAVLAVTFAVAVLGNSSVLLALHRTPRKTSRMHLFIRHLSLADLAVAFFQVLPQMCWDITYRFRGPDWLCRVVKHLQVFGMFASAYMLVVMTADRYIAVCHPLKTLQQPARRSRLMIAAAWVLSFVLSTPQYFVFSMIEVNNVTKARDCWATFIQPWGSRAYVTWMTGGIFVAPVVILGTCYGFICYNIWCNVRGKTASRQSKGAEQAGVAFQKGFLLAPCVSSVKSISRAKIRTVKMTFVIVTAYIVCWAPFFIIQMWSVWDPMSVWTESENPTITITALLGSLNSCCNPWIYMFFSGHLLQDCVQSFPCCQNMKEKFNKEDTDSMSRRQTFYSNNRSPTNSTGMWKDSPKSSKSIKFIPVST

In the case of `NC(=O)CC[C@@H]1NC(=O)[C@H](Cc2ccccc2)NC(=O)[C@H](Cc2ccc(O)cc2)NC(=O)[C@@H](N)CSSC[C@@H](C(=O)N2CCC[C@H]2C(=O)N[C@@H](CCCN=C(N)N)C(=O)NCC(N)=O)NC(=O)[C@H](CC(N)=O)NC1=O` [vasopressin], the “overall mortality compared with norepinephrine” value ([1]; all patients) is given as “not different” and the “mortality compared with norepinephrine” value ([1]; patients requiring 5-14 ug/min of norepinephrine at enrollment) is given as “decreased mortality”.

For `CC[C@H](C)[C@@H]1NC(=O)[C@H](Cc2ccccc2)NC(=O)[C@@H](N)CSSC[C@@H](C(=O)N2CCC[C@H]2C(=O)N[C@@H](CCCNC(C)C)C(=O)NCC(N)=O)NC(=O)[C@H](CC(N)=O)NC(=O)[C@H](CCCC(N)=O)NC1=O` [Selepressin, selepressin] (H-CFI[Aad](NH2)NCP[Orn(iPr)]G-NH2; disulfide 1-6), the “mortality and patient outcomes (pressor and mechanical ventilator free days)” value ([2]; PaO2/FiO2 greater than about 200 prior to treatment) was “improved mortality and improved patient outcomes”, the “mortality and patient outcomes (P&VFDs)” value ([2]; administered within six hours from when the patient requires vasopressor therapy) was “improved mortality and improved patient outcomes” and the “improvement in estimated VFDs compared with placebo (more)” value ([2]; baseline PaO2/FiO2 200-300 mmHg, FIG. 1) was 2.1. The “outcomes (VFDs) compared with placebo” value ([2]; baseline PaO2/FiO2 <100 mmHg, FIG. 1) was “slightly worse”, the “improvement in estimated VFDs compared with placebo (more)” value ([2]; baseline PaO2/FiO2 ≥300 mmHg, FIG. 1) was 4.8 and the Est % mortality [2, 5] was 21.39%. For the same molecule, the “Est P&VFDs: all patients” value [2, 5] was 17.53, the “Est % mortality, treatment difference vs placebo” value [2, 6] was −6.32% and the “Est P&VFDs: all patients, treatment difference vs placebo” value [2, 6] was 2.34. For the same molecule, the “Est P&VFDs: survivors” value [2, 6] was 22.30, the “Est P&VFDs: survivors, treatment difference vs placebo” value [2, 6] was 1.29 and the Est % mortality [2, 7] was 40.04%. The “Est P&VFDs: all patients” value [2, 7] was 13.87, the “Est % mortality, treatment difference vs placebo” value [2, 8] was 3.96% and the “Est P&VFDs: all patients, treatment difference vs placebo” value [2, 8] was −0.67. For the same molecule, the “Est P&VFDs: survivors” value [2, 8] was 23.14, the “Est P&VFDs: survivors, treatment difference vs placebo” value [2, 8] was 0.38 and the “improvement in mortality compared with placebo (less)” value ([2]; serum lactate <2 mmol/L at baseline) was 6.32%. For the same molecule, the “mortality and patient outcomes (P&VFDs)” value ([2]; serum lactate less than about 2 mmol/L prior to treatment) was “improved mortality and improved patient outcomes”, the “Estimated Pressor and Ventilator Free days (P&VFDs): all patients” value ([2]; treatment <6 hours from when patient required vasopressor, n = 147) was 14.56 days and the “Estimated P&VFDs: all patients, treatment difference vs placebo” value ([2]; treatment <6 hours from when patient required vasopressor) was 2.08 days. For the same molecule, the “Estimated 30-day mortality (up to day 30)” value ([2]; treatment <6 hours, n = 147) was 35.73%, the “Estimated 30-day mortality, treatment difference vs placebo” value ([2]; treatment <6 hours) was −6.57% and the “Estimated Pressor and Ventilated Free Days (P&VFDs): survivors only” value ([2]; treatment <6 hours) was 22.66 days. The “Estimated P&VFDs: survivors only, treatment difference vs placebo” value ([2]; treatment <6 hours) was 1.02 days, the “improvement in mortality compared with placebo (less)” value ([2]; treatment between zero and up to six hours from when patient required vasopressor) was 6.57% and the “Estimated 30-day mortality (up to day 30)” value ([2]; treatment ≥6 hours, n = 415) was 33.79%. For the same molecule, the “Estimated Pressor and Ventilator Free days (P&VFDs): all patients” value ([2]; treatment ≥6 hours, n = 415) was 15.59 days, the “Estimated 30-day mortality, treatment difference vs placebo” value ([2]; treatment ≥6 hours) was 2.91% and the “Estimated P&VFDs: all patients, treatment difference vs placebo” value ([2]; treatment ≥6 hours) was -0.05 days. The “Estimated Pressor and Ventilated Free Days (P&VFDs): survivors only” value ([2]; treatment ≥6 hours) was 23.55 days, the “Estimated P&VFDs: survivors only, treatment difference vs placebo” value ([2]; treatment ≥6 hours) was 0.92 days and the “affinity and selectivity for V1a receptor” value [3] was “high affinity and selectivity”. For the same molecule, the “affinity for other receptors, ion channels, or transporters” value [4] was “no known affinity”.
